This experiment has as its system A2780 cells. Description: In-vitro cell proliferation assay (SRB, 72 hours). The experiment is classed as cell-based. The settings on record: Homo sapiens, A2780, 72 h, A2780 cells, 72 hours, SRB; read-out: Cell Proliferation (IC50).
As to `CC(C)(C)CC(=O)N1CCC2(CC1)CC2CNC(=O)c1cc2ccncc2o1` (stereo not shown) [Example 29, N-[[6-(3,3-dimethylbutanoyl)-6-azaspiro[2.5]octan-2-yl]methyl]furo[2,3-c]pyridine-2-carboxamide], the IC50 is 3.03 nM.

Consider `Cn1nc(C(C)(C)C)cc1C(=O)N1CCC2(CC1)CC2CNC(=O)c1cc2ccncc2o1` (stereo not shown) [Example 296, N-[[6-(5-tert-butyl-2-methyl-pyrazole-3-carbonyl)-6-azaspiro[2.5]octan-2-yl]methyl]furo[2,3-c]pyridine-2-carboxamide], for which the IC50 stood at 10.8 nM.

For `COc1ccccc1CNC(=O)N1CCC2(CC1)CC2CNC(=O)c1cc2ccncc2o1` (stereo not shown) [Example 164, N-[[6-((2-methoxyphenyl)methylcarbamoyl]-6-azaspiro[2.5]octan-2-yl]methyl]furo[2,3-c]pyridine-2-carboxamide], the IC50 came to 1540 nM.

As for `CC(C)(C)OC(=O)N1Cc2[nH]nc(C(=O)N3CCC4(CC3)CC4CNC(=O)c3cc4ccncc4o3)c2C1` (stereo not shown) [Example 306, tert-butyl 3-[2-[(furo[2,3-c]pyridine-2-carbonylamino)methyl]-6-azaspiro[2.5]octane-6-carbonyl]-4,6-dihydro-1H-pyrrolo[3,4-c]pyrazole-5-carboxylate], the IC50 worked out at 38.8 nM.

Consider `CN1CC(C(=O)N2CCC3(CC2)CC3CNC(=O)c2cc3ccncc3o2)CC1=O` (stereo not shown) [Example 56, N-[[6-(1-methyl-5-oxo-pyrrolidine-3-carbonyl)-6-azaspiro[2.5]octan-2-yl]methyl]furo[2,3-c]pyridine-2-carboxamide], for which the IC50 is 2000 nM.

Take `O=C(Cc1cccnc1)N1CCC2(CC1)CC2CNC(=O)N1Cc2ccncc2C1` (stereo not shown) [Example 177]: the IC50 amounted to 34.4 nM.

For `CS(=O)(=O)c1cccc(CC(=O)N2CCC3(CC2)CC3CNC(=O)c2cc3ccncc3o2)c1` (stereo not shown) [Example 28, N-[[6-[2-(3-methylsulfonylphenyl)acetyl]-6-azaspiro[2.5]octan-2-yl]methyl]furo[2,3-c]pyridine-2-carboxamide], the IC50 is 616 nM.

As for `O=CNCC(=O)N1CCC2(CC1)CC2CNC(=O)c1cc2ccncc2o1` (stereo not shown) [Example 62, N-[[6-(2-formamidoacetyl)-6-azaspiro[2.5]octan-2-yl]methyl]furo[2,3-c]pyridine-2-carboxamide], the IC50 worked out at 2000 nM.

Regarding `CC(C)(C)CS(=O)(=O)N1CCC2(CC1)CC2CNC(=O)c1cc2cnccc2[nH]1` (stereo not shown) [Example 379, N-[[6-(2,2-dimethylpropylsulfonyl)-6-azaspiro[2.5]octan-2-yl]methyl]-1H-pyrrolo[3,2-c]pyridine-2-carboxamide], the IC50 was 2000 nM.

For the compound `CN(C)Cc1ccc(C(=O)N2CCC3(CC2)CC3CNC(=O)c2cc3cnccc3[nH]2)cc1` (stereo not shown) [Example 345, N-[[6-[4-[(dimethylamino)methyl]benzoyl]-6-azaspiro[2.5]octan-2-yl]methyl]-1H-pyrrolo[3,2-c]pyridine-2-carboxamide], the IC50 came to 80.8 nM.

Regarding `O=C(NCC1CC12CCN(C(=O)NC1CCCCC1)CC2)c1cc2ccncc2o1` (stereo not shown) [Example 186, N-[[6-(cyclohexylcarbamoyl)-6-azaspiro[2.5]octan-2-yl)methyl]furo[2,3-c]pyridine-2-carboxamide], the IC50 was determined as 732 nM.

As to `O=C(NCC1CC12CCN(C(=O)c1ccccc1)CC2)c1cc2ccncc2o1` (stereo not shown) [Example 411, N-((6-benzoyl-6-azaspiro[2.5]octan-2-yl)methyl]furo[2,3-c]pyridine-2-carboxamide], the IC50 amounted to 2000 nM.

Take `O=C(NCC1CC12CCN(C(=O)NCc1ccc(Cl)c(Cl)c1)CC2)c1cc2ccncc2o1` (stereo not shown) [Example 168, N-[[6-[(3,4-dichlorophenyl)methylcarbamoyl]-6-azaspiro[2.5]octan-2-yl]methyl]furo[2,3-c]pyridine-2-carboxamide]: the IC50 came to 2000 nM.

Take `O=C(NCC1CC12CCN(C(=O)NCc1ccccc1F)CC2)c1cc2ccncc2o1` (stereo not shown) [Example 161, N-[[6-[(2-fluorophenyl)methylcarbamoyl]-6-azaspiro[2.5]octan-2-yl]methyl]furo[2,3-c]pyridine-2-carboxamide]: the IC50 was found to be 2000 nM.

For `O=C(NCC1CC12CCN(C(=O)NCC1CCCCC1)CC2)c1cc2ccncc2o1` (stereo not shown) [Example 184, N-[[6-(cyclohexylmethylcarbamoyl)-6-azaspiro[2.5]octan-2-yl]methyl]furo[2,3-c]pyridine-2-carboxamide], the IC50 was 2000 nM.

For the compound `CC(C)(C)OC(=O)N1CCC2(CC1)CC(CNC(=O)c1cc3ccncc3o1)C2` [Example 194, tert-butyl 2-[(furo[2,3-c]pyridine-2-carbonylamino)methyl]-7-azaspiro[3.5]nonane-7-carboxylate], the IC50 was found to be 2000 nM.

With `CC(C)CC(=O)N1CCC2(CC1)CC2CNC(=O)c1cc2cnccc2[nH]1` (stereo not shown) [Example 46, N-[[6-(3-methylbutanoyl)-6-azaspiro[2.5]octan-2-yl]methyl]-1H-pyrrolo[3,2-c]pyridine-2-carboxamide], the IC50 is 402 nM.

On to `CS(=O)(=O)c1cccc(C(=O)N2CCC3(CC2)CC3CNC(=O)c2cc3ccncc3o2)c1` (stereo not shown) [Example 92, N-[[6-(3-methylsulfonylbenzoyl)-6-azaspiro[2.5]octan-2-yl]methyl]furo[2,3-c]pyridine-2-carboxamide], for which the IC50 is 152 nM.

Take `Cc1nonc1C(=O)N1CCC2(CC1)CC2CNC(=O)c1cc2ccncc2o1` (stereo not shown) [Example 118, N-[[6-(4-methyl-1,2,5-oxadiazole-3-carbonyl)-6-azaspiro[2.5]octan-2-yl]methyl]furo[2,3-c]pyridine-2-carboxamide]: the IC50 worked out at 1070 nM.

Take `CC(=O)NCC(C)(C)OC(=O)N1CCC2(CC1)CC2CNC(=O)N1Cc2ccncc2C1` (stereo not shown) [Example 358, (2-acetamido-1,1-dimethyl-ethyl)2-[(1,3-dihydropyrrolo[3,4-c]pyridine-2-carbonylamino)methyl]-6-azaspiro[2.5]octane-6-carboxylate]: the IC50 was 9.19 nM.

`O=C(NCC1CC12CCN(C(=O)C1CCOCC1)CC2)c1cc2ccncc2o1` (stereo not shown) [Example 60, N-[[6-(tetrahydropyran-4-carbonyl)-6-azaspiro[2.5]octan-2-yl]methyl]furo[2,3-c]pyridine-2-carboxamide]: the IC50 turned out to be 1530 nM.

Consider `CC1(CC(=O)N2CCC3(CC2)CC3CNC(=O)N2Cc3ccncc3C2)CCN(CC(F)(F)F)CC1` (stereo not shown) [Example 403, N-[[6-[2-[4-Methyl-1-(2,2,2-trifluoroethyl)-4-piperidyl]acetyl]-6-azaspiro[2.5]octan-2-yl]methyl]-1,3-dihydropyrrolo[3,4-c]pyridine-2-carboxamide], for which the IC50 is 2.9 nM.

On to `N#Cc1ccccc1CC(=O)N1CCC2(CC1)CC2CNC(=O)c1cc2ccncc2o1` (stereo not shown) [Example 152, N-[[6-[2-(2-cyanophenyl)acetyl]-6-azaspiro[2.5]octan-2-yl]methyl]furo[2,3-c]pyridine-2-carboxamide], for which the IC50 was determined as 262 nM.

`O=C(NCC1CC12CCN(C(=O)CC1CCN(c3ncccn3)CC1)CC2)c1cc2ccncc2o1` (stereo not shown) [Example 147, N-[[6-[2-(1-pyrimidin-2-yl-4-piperidyl)acetyl]-6-azaspiro[2.5]octan-2-yl]methyl]furo[2,3-c]pyridine-2-carboxamide]: the IC50 worked out at 74.4 nM.

Consider `O=C(CN1CCOCC1)N1CCC2(CC1)CC2CNC(=O)N1Cc2ccncc2C1` (stereo not shown) [Example 198, N-[[6-(2-morpholinoacetyl)-6-azaspiro[2.5]octan-2-yl]methyl]-1,3-dihydropyrrolo[3,4-c]pyridine-2-carboxamide], for which the IC50 amounted to 61.8 nM.

On to `CS(=O)(=O)Nc1ccc(C(=O)N2CCC3(CC2)CC3CNC(=O)c2cc3ccncc3o2)cc1` (stereo not shown) [Example 84, N-[[6-[4-(methanesulfonamido)benzoyl]-6-azaspiro[2.5]octan-2-yl]methyl]furo[2,3-c]pyridine-2-carboxamide], for which the IC50 amounted to 185 nM.

`O=C(NCC1CC12CCN(C(=O)NCc1ccccc1Cl)CC2)c1cc2ccncc2o1` (stereo not shown) [Example 171, N-[[6-[(2-chlorophenyl)methylcarbamoyl]-6-azaspiro[2.5]octan-2-yl]methyl]furo[2,3-c]pyridine-2-carboxamide]: the IC50 came to 2000 nM.

Turning to `NC(=O)N1CCC(C(=O)N2CCC3(CC2)CC3CNC(=O)c2cc3ccncc3o2)CC1` (stereo not shown) [Example 78, N-[[6-(1-carbamoylpiperidme-4-carbonyl)-6-azaspiro[2.5]octan-2-y]methyl]furo(2,3-c]pyridine-2-carboxamide], the IC50 was 2000 nM.

`O=C(NCC1CC12CCN(C(=O)C1CCOCC1)CC2)c1cc2cnccc2[nH]1` (stereo not shown) [Example 10, N-[[8-(tetrahydropyran-4-carbonyl)-8-azaspiro[2.5]octan-2-yl]methyl]-1H-pyrrolo[3,2-c]pyridine-2-carboxamidc]: the IC50 came out at 791 nM.

Consider `Cc1nc(C(=O)N2CCC3(CC2)CC3CNC(=O)c2cc3ccncc3o2)c(C)o1` (stereo not shown) [Example 334, N-[[6-(2,5-dimethyloxazole-4-carbonyl)-6-azaspiro[2.5]octan-2-yl]methyl]furo[2,3-c]pyridine-2-carboxamide], for which the IC50 was 56.5 nM.

Consider `O=C(NCC1CC12CCN(C(=O)CC1CC1)CC2)c1cc2ccncc2o1` (stereo not shown) [Example 32, N-[[6-(2-cyclopropylacetyl)-6-azaspiro[2.5]octan-2-yl]methyl]furo[2,3-c]pyridine-2-carboxamide], for which the IC50 was determined as 2000 nM.

`Cc1nc(C(F)(F)F)c(C(=O)N2CCC3(CC2)CC3CNC(=O)N2Cc3ccncc3C2)s1` (stereo not shown) [Example 388, N-[[6-[2-methyl-4-(trifluoromethyl]thiazole-5-carbonyl]-6-azaspiro[2.5]octan-2-yl]methyl]-1,3-dihydropyrrolo[3,4-c]pyridine-2-carboxamide]: the IC50 was determined as 1.26 nM.

For the compound `CN1CCC(C)(CC(=O)N2CCC3(CC2)CC3CNC(=O)N2Cc3ccncc3C2)CC1` (stereo not shown) [Example 356, N-[[6-[2-(1,4-dimethyl-4-piperidyl)acetyl]-6-azaspiro[2.5]octan-2-yl]methyl]-1,3-dihydropyrrolo[3,4-c]pyridine-2-carboxamide], the IC50 amounted to 7.62 nM.

Consider `CCc1cc(C(=O)N2CCC3(CC2)CC3CNC(=O)c2cc3ccncc3o2)n(C)n1` (stereo not shown) [Example 326, N-[[6-(5-ethyl-2-methyl-pyrazole-3-carbonyl)-6-azaspiro[2.5]octan-2-yl]methyl]furo[2,3-c]pyridine-2-carboxamide], for which the IC50 was 10.9 nM.

These data come from patent publication US10730889B2, “Amido spirocyclic amide and sulfonamide derivatives” (Forma TM, LLC, priority 2012, dated 2020).
